{"source": "patent US6914045B2", "about": "“Glycopeptide antibiotics” (Wyeth Holdings Corporation, priority 2001, dated 2005)", "test_in_all_cases": "in vitro antibacterial evaluation, MIC by broth dilution", "assay_type_in_all_cases": "cell-based", "key": {"[1]": {"system": "Escherichia coli", "settings": "18 hours at 35° C."}, "[2]": {"system": "Enterococcus sp.", "settings": "broth dilution, 18 hours at 35° C.", "in_short": "(§1)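 Broth dilution per NCCLS M7-A2 in Mueller-Hinton II medium, inoculum 5×10^5 CFU/mL, antibiotic range 64-0.06 μg/mL. MIC taken as lowest concentration inhibiting growth; Gram-positive panel includes recent clinical isolates resistant to methicillin, penicillin and/or vancomycin.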"}, "[3]": {"system": "Streptococcus sp.", "settings": "broth dilution, 18 hours at 35° C.", "in_short": "as §1"}, "[4]": {"system": "Staphylococcus sp.", "settings": "broth dilution, 18 hours at 35° C.; for MIC Staphylococcus aureus (GC 1131): strain GC 1131", "in_short": "as §1"}}, "data": [{"smiles": "CC(c1ccccc1)C1NC(=O)CNC(=O)C(CO)NC(=O)C(C(O)C2CNC(=N)N2C2OC(CO)C(O)C(O)C2O)NC(=O)C(C(O)C2CNC(=N)N2)NC(=O)C(Cc2ccc(OC3OC(CO)C(OC4OC5COC6(CCCCC6C)OC5C(O)C4O)C(O)C3O)cc2)NC1=O", "note": "(stereo not shown) [Example 204]", "values": [{"measurement": "MIC Escherichia coli (ATCC 25922)", "setting": "[1]", "result": 128, "unit": "µg/mL"}, {"measurement": "MIC Escherichia coli (GC 4559)", "setting": "[1]", "result": 128, "unit": "µg/mL"}, {"measurement": "MIC Escherichia coli (GC 4560)", "setting": "[1]", "result": 4, "unit": "µg/mL"}, {"measurement": "MIC Enterococcus avium (GC 4558)", "setting": "[2]", "result": 16, "unit": "µg/mL"}, {"measurement": "MIC Enterococcus faecalis (ATCC 29212)", "setting": "[2]", "result": 16, "unit": "µg/mL"}, {"measurement": "MIC Enterococcus faecalis (GC 2242)", "setting": "[2]", "result": 16, "unit": "µg/mL"}, {"measurement": "MIC Enterococcus faecalis (GC 2691)", "setting": "[2]", "result": 16, "unit": "µg/mL"}, {"measurement": "MIC Enterococcus faecalis (GC 3059)", "setting": "[2]", "result": 16, "unit": "µg/mL"}, {"measurement": "MIC Enterococcus faecalis (GC 4552)", "setting": "[2]", "result": 16, "unit": "µg/mL"}, {"measurement": "MIC Enterococcus faecalis (GC 4553)", "setting": "[2]", "result": 16, "unit": "µg/mL"}, {"measurement": "MIC Enterococcus faecalis (GC 4554)", "setting": "[2]", "result": 16, "unit": "µg/mL"}, {"measurement": "MIC Enterococcus faecalis (GC 6189)", "setting": "[2]", "result": 16, "unit": "µg/mL"}, {"measurement": "MIC Enterococcus faecium (GC 2243)", "setting": "[2]", "result": 16, "unit": "µg/mL"}, {"measurement": "MIC Enterococcus faecium (GC 4556)", "setting": "[2]", "result": 16, "unit": "µg/mL"}, {"measurement": "MIC Enterococcus faecium (GC 4557)", "setting": "[2]", "result": 8, "unit": "µg/mL"}, {"measurement": "MIC Enterococcus faecalis (ATCC 29212)", "setting": "[2]; inoculum 5×10^5 CFU/mL, strain ATCC 29212", "result": 16, "unit": "µg/mL"}, {"measurement": "MIC Enterococcus faecalis (GC 2242)", "setting": "[2]; inoculum 5×10^5 CFU/mL, strain GC 2242", "result": 16, "unit": "µg/mL"}, {"measurement": "MIC Enterococcus faecium (GC 2243)", "setting": "[2]; inoculum 5×10^5 CFU/mL, strain GC 2243", "result": 16, "unit": "µg/mL"}, {"measurement": "MIC Enterococcus faecalis (GC 2691)", "setting": "[2]; inoculum 5×10^5 CFU/mL, strain GC 2691", "result": 16, "unit": "µg/mL"}, {"measurement": "MIC Enterococcus faecalis (GC 3059)", "setting": "[2]; inoculum 5×10^5 CFU/mL, strain GC 3059", "result": 16, "unit": "µg/mL"}, {"measurement": "MIC Enterococcus faecalis (GC 4552)", "setting": "[2]; inoculum 5×10^5 CFU/mL, strain GC 4552", "result": 16, "unit": "µg/mL"}, {"measurement": "MIC Enterococcus faecalis (GC 4553)", "setting": "[2]; inoculum 5×10^5 CFU/mL, strain GC 4553", "result": 16, "unit": "µg/mL"}, {"measurement": "MIC Enterococcus faecalis (GC 4554)", "setting": "[2]; inoculum 5×10^5 CFU/mL, strain GC 4554", "result": 16, "unit": "µg/mL"}, {"measurement": "MIC Enterococcus faecium (GC 4556)", "setting": "[2]; inoculum 5×10^5 CFU/mL, strain GC 4556", "result": 16, "unit": "µg/mL"}, {"measurement": "MIC Enterococcus faecium (GC 4557)", "setting": "[2]; inoculum 5×10^5 CFU/mL, strain GC 4557", "result": 8, "unit": "µg/mL"}, {"measurement": "MIC Enterococcus avium (GC 4558)", "setting": "[2]; inoculum 5×10^5 CFU/mL, strain GC 4558", "result": 16, "unit": "µg/mL"}, {"measurement": "MIC Enterococcus faecalis (GC 6189)", "setting": "[2]; inoculum 5×10^5 CFU/mL, strain GC 6189", "result": 16, "unit": "µg/mL"}, {"measurement": "MIC Streptococcus agalactiae (GC 4564)", "setting": "[3]", "result": 1, "unit": "µg/mL"}, {"measurement": "MIC Streptococcus pneumoniae (ATCC 6301)", "setting": "[3]", "result": 0.5, "unit": "µg/mL"}, {"measurement": "MIC Streptococcus pneumoniae (GC 1894)", "setting": "[3]", "result": 0.25, "unit": "µg/mL"}, {"measurement": "MIC Streptococcus pneumoniae (GC 4565)", "setting": "[3]", "result": 0.5, "unit": "µg/mL"}, {"measurement": "MIC Streptococcus pyogenes (GC 4563)", "setting": "[3]", "result": 0.5, "unit": "µg/mL"}, {"measurement": "MIC Streptococcus pneumoniae (ATCC 6301)", "setting": "[3]; inoculum 5×10^5 CFU/mL, strain ATCC 6301", "result": 0.5, "unit": "µg/mL"}, {"measurement": "MIC Streptococcus pneumoniae (GC 1894)", "setting": "[3]; inoculum 5×10^5 CFU/mL, strain GC 1894", "result": 0.25, "unit": "µg/mL"}, {"measurement": "MIC Streptococcus pyogenes (GC 4563)", "setting": "[3]; inoculum 5×10^5 CFU/mL, strain GC 4563", "result": 0.5, "unit": "µg/mL"}, {"measurement": "MIC Streptococcus agalactiae (GC 4564)", "setting": "[3]; inoculum 5×10^5 CFU/mL, strain GC 4564", "result": 1, "unit": "µg/mL"}, {"measurement": "MIC Streptococcus pneumoniae (GC 4565)", "setting": "[3]; inoculum 5×10^5 CFU/mL, strain GC 4565", "result": 0.5, "unit": "µg/mL"}, {"measurement": "MIC Staphylococcus aureus (GC 1131)", "setting": "[4]; inoculum 5×10^5 CFU/mL", "result": 8, "unit": "µg/mL"}, {"measurement": "MIC Staphylococcus aureus (ATCC 29213)", "setting": "[4]; strain ATCC 29213", "result": 4, "unit": "µg/mL"}, {"measurement": "MIC Staphylococcus aureus (GC 1131)", "setting": "[4]", "result": 8, "unit": "µg/mL"}, {"measurement": "MIC Staphylococcus aureus (GC 3051)", "setting": "[4]; strain GC 3051", "result": 4, "unit": "µg/mL"}, {"measurement": "MIC Staphylococcus aureus (GC 3053)", "setting": "[4]; strain GC 3053", "result": 8, "unit": "µg/mL"}, {"measurement": "MIC Staphylococcus aureus (GC 4541)", "setting": "[4]; strain GC 4541", "result": 4, "unit": "µg/mL"}, {"measurement": "MIC Staphylococcus aureus (GC 4542)", "setting": "[4]; strain GC 4542", "result": 4, "unit": "µg/mL"}, {"measurement": "MIC Staphylococcus aureus-SMITH (GC 4543)", "setting": "[4]; strain GC 4543", "result": 4, "unit": "µg/mL"}, {"measurement": "MIC Staphylococcus aureus (GC 4544)", "setting": "[4]; strain GC 4544", "result": 8, "unit": "µg/mL"}, {"measurement": "MIC Staphylococcus aureus (GC 4545)", "setting": "[4]; strain GC 4545", "result": 4, "unit": "µg/mL"}, {"measurement": "MIC Staphylococcus haemolyticus (GC 4546)", "setting": "[4]; strain GC 4546", "result": 2, "unit": "µg/mL"}, {"measurement": "MIC Coagulase Negative Staphylococcus (GC 4547)", "setting": "[4]; strain GC 4547", "result": 4, "unit": "µg/mL"}, {"measurement": "MIC Coagulase Negative Staphylococcus (GC 4548)", "setting": "[4]; strain GC 4548", "result": 4, "unit": "µg/mL"}, {"measurement": "MIC Coagulase Negative Staphylococcus (GC 4549)", "setting": "[4]; strain GC 4549", "result": 2, "unit": "µg/mL"}, {"measurement": "MIC Coagulase Negative Staphylococcus (GC 4551)", "setting": "[4]; strain GC 4551", "result": 4, "unit": "µg/mL"}]}]}
